Source: BindingDB's records for doi:10.1021/jm00100a018 (1992)
Counter-ions that a name gives are not always drawn.

Assay: Concentration tested in vitro to inhibit PAF-induced maximum aggregation (PAF-Antagonistic activity) by 50%.

SMILES	IC50
N#CC(c1cccnc1)N1CCN(C(=O)c2ccc3ccccc3c2)CC1 (stereo unspecified) [[4-(Naphthalene-2-carbonyl)-piperazin-1-yl]-pyridin-3-yl-acetonitrile; dihydrochloride]	25000 nM

Assay: as above
Remark: another data set of the same source

SMILES	IC50
COc1cc(CCC(=O)N2CCN(C(=O)c3cc(OC)c(OC)c(OC)c3)CC2)cc(OC)c1OC	73000 nM
N#CC(c1cccnc1)N1CCN(C(=O)CNC(Cc2ccccc2)c2ccccc2)CC1 (stereo unspecified)	50 nM
N#CC(c1cccnc1)N1CCN(C(=O)CNCC(c2ccccc2)c2ccccc2)CC1 (stereo unspecified)	220 nM
N#CC(CN1CCN(C(=O)C(c2ccccc2)c2ccccc2)CC1)c1cccnc1 (stereo unspecified)	2300 nM
COc1cc(C(=O)N2CCN(C(=S)c3cccnc3)CC2)cc(OC)c1OC	1300 nM
CC(c1cccnc1)N1CCN(C(=O)C(c2ccccc2)c2ccccc2)CC1 (stereo unspecified)	1200 nM
N#CC(c1cccc([N+](=O)[O-])c1)N1CCN(C(=O)CC(c2ccccc2)c2ccccc2)CC1 (stereo unspecified)	11000 nM
CCCCCCCC(=O)N1CCN(C(C#N)c2cccnc2)CC1 (stereo unspecified)	920 nM
N#CC(c1cccnc1)N1CCN(CCNC(=O)C(c2ccccc2)c2ccccc2)CC1 (stereo unspecified)	36 nM
N#CC(=C1CCN(C(=O)CC(c2ccccc2)c2ccccc2)CC1)c1cccnc1	26 nM
N#CC(c1cccnc1)N1CCN(C(=O)NC(c2ccccc2)c2ccccc2)CC1 (stereo unspecified)	360 nM
O=C(CC(c1ccccc1)c1ccccc1)N1CCN(Cc2cccnc2)CC1	520 nM
O=C(c1cccnc1)N1CCN(C(=O)C(c2ccccc2)c2ccccc2)CC1	23000 nM
N#CC1(Nc2cccnc2)CCN(C(=O)CNC(c2ccccc2)c2ccccc2)CC1	200 nM
N#CC(c1cncs1)N1CCN(C(=O)CC(c2ccccc2)c2ccccc2)CC1 (stereo unspecified)	21 nM
N#CC(c1cccnc1)N1CCN(C(=O)Cc2ccccc2)CC1 (stereo unspecified)	2700 nM
COc1cc(CC(=O)N2CCN(C(C#N)c3cccnc3)CC2)cc(OC)c1OC (stereo unspecified)	460 nM
N#CC(c1cccnc1)C1CCN(C(=O)CNC(c2ccccc2)c2ccccc2)CC1 (stereo unspecified)	24 nM
N#Cc1cccc(C(C#N)N2CCN(C(=O)CC(c3ccccc3)c3ccccc3)CC2)c1 (stereo unspecified)	7400 nM
N#CC(c1ccncc1)N1CCN(C(=O)CC(O)(c2ccccc2)c2ccccc2)CC1 (stereo unspecified)	2.7 nM
CC(C)(C)C(=O)N1CCN(C(C#N)c2cccnc2)CC1 (stereo unspecified)	5200 nM
N#CC1(Nc2cccnc2)CCN(C(=O)CC(c2ccccc2)c2ccccc2)CC1	15 nM
N#CC(c1cccnc1)N1CCN(C(=O)Cc2ccc3ccccc3c2)CC1 (stereo unspecified)	720 nM
N#CC(c1cccc(C(F)(F)F)c1)N1CCN(C(=O)CC(c2ccccc2)c2ccccc2)CC1 (stereo unspecified)	9000 nM
N#CC(c1cccnc1)N1CCN(C(=O)CCCc2ccccc2)CC1 (stereo unspecified)	260 nM
CC(c1ccccc1)N(C)CC(=O)N1CCN(C(C#N)c2cccnc2)CC1 (stereo unspecified)	240 nM
N#CC(c1cccnc1)N1CCN(C(=O)C(CCc2ccccc2)c2ccccc2)CC1 (stereo unspecified)	2600 nM

SMILES	IC50
N#CC(c1cccnc1)N1CCN(C(=O)Cc2cccc3ccccc23)CC1 (stereo unspecified)	76 nM
O=C(C(c1ccccc1)c1ccccc1)N1CCN(Cc2cccnc2)CC1	2600 nM
N#CC(c1cccnc1)N1CCN(C(=O)C(Cc2ccccc2)c2ccccc2)CC1 (stereo unspecified)	230 nM
O=C(C(c1ccccc1)c1ccccc1)N1CC[N+]([O-])(Cc2cccnc2)CC1	44000 nM
N#CC(c1cccnc1)N1CCN(C(=O)CNCCC(c2ccccc2)c2ccccc2)CC1 (stereo unspecified)	86 nM
COc1cc(C(=O)N2CCN(C(=O)c3cc(OC)c(OC)c(OC)c3)CC2)cc(OC)c1OC	9400 nM
N#CC(c1cccnc1)N1CCN(C(=O)C(c2ccccc2)c2ccccc2)CC1 (stereo unspecified)	10 nM
N#CC(c1cccnc1)N1CCN(C(=O)CN(Cc2ccccc2)Cc2ccccc2)CC1 (stereo unspecified)	32 nM
N#CC(c1cccnc1)N1CCN(C(=O)/C(=C/c2ccccc2)c2ccccc2)CC1 (stereo unspecified)	7.5 nM
N#CC(c1cccnc1)N1CCN(CC(=O)NCCC(c2ccccc2)c2ccccc2)CC1 (stereo unspecified)	240 nM
CN(CC(=O)N1CCN(C(C#N)c2cccnc2)CC1)C(c1ccccc1)c1ccccc1 (stereo unspecified)	60 nM
N#CC(c1ccncc1)N1CCN(C(=O)CNC(=O)C(c2ccccc2)c2ccccc2)CC1 (stereo unspecified)	680 nM
Cn1cccc1C(C#N)N1CCN(C(=O)CC(c2ccccc2)c2ccccc2)CC1 (stereo unspecified)	25000 nM
CN(CC(=O)N1CCN(C(C#N)c2cccnc2)CC1)c1ccccc1 (stereo unspecified)	2800 nM
CN(C)c1ccc(C(C#N)N2CCN(C(=O)CC(c3ccccc3)c3ccccc3)CC2)cc1 (stereo unspecified)	210000 nM
Cn1ccc(C(C#N)N2CCN(C(=O)CC(c3ccccc3)c3ccccc3)CC2)c1 (stereo unspecified)	2600 nM
N#CC(c1cccnc1)C1CCN(C(=O)C(c2ccccc2)c2ccccc2)CC1 (stereo unspecified)	21 nM
N#CC(c1cccnc1)N1CCN(C(=O)CNc2ccccc2)CC1 (stereo unspecified)	130 nM
O=C(CC(c1ccccc1)c1ccccc1)N1CCN(C(=O)c2cc[n+]([O-])cc2)CC1	1900 nM
NC(=O)C(c1cccnc1)N1CCN(C(=O)C(c2ccccc2)c2ccccc2)CC1 (stereo unspecified)	200000 nM
COc1cc(C(=O)N2CCN(C(=O)c3cccnc3)CC2)cc(OC)c1OC	5200 nM
N#CC(c1cccnc1)N1CCN(CCNC(=O)CC(c2ccccc2)c2ccccc2)CC1 (stereo unspecified)	5500 nM
N#CC(c1cccnc1)N1CCN(CCC(c2ccccc2)c2ccccc2)CC1 (stereo unspecified)	630 nM
CC(NCC(=O)N1CCN(C(C#N)c2cccnc2)CC1)c1ccccc1 (stereo unspecified)	36 nM
N#CC(c1cccnc1)N1CCN(C(=O)CN(Cc2ccccc2)c2ccccc2)CC1 (stereo unspecified)	24 nM
O=C(CC(c1ccccc1)c1ccccc1)N1CCN(C(=O)c2ccncc2)CC1	1900 nM
CCCCC(=O)N1CCN(C(C#N)c2cccnc2)CC1 (stereo unspecified)	2600 nM

SMILES	IC50
N#CC(c1cccc(Cl)c1)N1CCN(C(=O)CC(c2ccccc2)c2ccccc2)CC1 (stereo unspecified)	21000 nM
N#CC(c1cccnc1)N1CCN(C(=S)C(c2ccccc2)c2ccccc2)CC1 (stereo unspecified)	23 nM
N#CC(c1cccnc1)N1CCN(C(=O)/C=C/c2ccccc2)CC1 (stereo unspecified)	2500 nM
Cn1cc(C(C#N)N2CCN(C(=O)CC(c3ccccc3)c3ccccc3)CC2)c2ccccc21 (stereo unspecified)	5700 nM
CC(C#N)(c1cccnc1)N1CCN(C(=O)C(c2ccccc2)c2ccccc2)CC1 (stereo unspecified)	240 nM
N#CC(c1ccncc1)N1CCN(CCNC(c2ccccc2)c2ccccc2)CC1 (stereo unspecified)	36 nM
COc1cc(C(=O)N2CCN(C(C#N)c3ccccn3)CC2)cc(OC)c1OC (stereo unspecified)	44000 nM
N#CC(c1cccnc1)N1CCN(C(=O)CNc2cccc3ccccc23)CC1 (stereo unspecified)	2600 nM
CCCCCCCCCCCCCCCC(=O)N1CCN(C(C#N)c2cccnc2)CC1 (stereo unspecified)	> 200000 nM
N#CC(c1ccncc1)N1CCN(C(=O)CCNC(c2ccccc2)c2ccccc2)CC1 (stereo unspecified)	55 nM
N#CC(c1cccnc1)N1CCN(C(=O)Cc2c[nH]c3ccccc23)CC1 (stereo unspecified)	450 nM
N#CC(c1cccnc1)N1CCN(C(=O)CNCCCc2ccccc2)CC1 (stereo unspecified)	530 nM
O=C(CC(c1ccccc1)c1ccccc1)N1CCC(Nc2cccnc2)CC1 [3,3-Diphenyl-1-[4-(pyridin-3-ylamino)-piperidin-1-yl]-propan-1-one; dihydrochloride; hydrate]	87 nM
N#CC(c1cccnc1)N1CCC(OC(=O)CC(c2ccccc2)c2ccccc2)CC1 (stereo unspecified) [3,3-Diphenyl-propionic acid 1-(cyano-pyridin-3-yl-methyl)-piperidin-4-yl ester; dihydrochloride; hydrate]	2600 nM
N#CC(c1cccnc1)N1CCN(C(=O)OCC(c2ccccc2)c2ccccc2)CC1 (stereo unspecified) [4-(Cyano-pyridin-3-yl-methyl)-piperazine-1-carboxylic acid 2,2-diphenyl-ethyl ester; dihydrochloride; hydrate]	26 nM
N#CC(c1cccnc1)N1CCN(C(=O)c2ccccc2)CC1 (stereo unspecified) [(4-Benzoyl-piperazin-1-yl)-pyridin-3-yl-acetonitrile; dihydrochloride]	4800 nM
COc1cc(C(=O)N2CCN(Cc3cccnc3)CC2)cc(OC)c1OC [(4-Pyridin-3-ylmethyl-piperazin-1-yl)-(3,4,5-trimethoxy-phenyl)-methanone; dihydrochloride; hydrate]	17000 nM
CN(CCCc1ccccc1)CC(=O)N1CCN(C(C#N)c2cccnc2)CC1 (stereo unspecified) [(4-{2-[Methyl-(3-phenyl-propyl)-amino]-acetyl}-piperazin-1-yl)-pyridin-3-yl-acetonitrile; dihydrochloride; hydrate]	2200 nM
COc1cc(C(=O)N2CCN(C(C#N)c3cccnc3)CC2)cc(OC)c1OC (stereo unspecified) [Pyridin-3-yl-[4-(3,4,5-trimethoxy-benzoyl)-piperazin-1-yl]-acetonitrile; dihydrochloride; hydrate]	1900 nM
COc1cc(CCC(=O)N2CCN(C(C#N)c3cccnc3)CC2)cc(OC)c1OC (stereo unspecified) [Pyridin-3-yl-{4-[3-(3,4,5-trimethoxy-phenyl)-propionyl]-piperazin-1-yl}-acetonitrile; dihydrochloride; hydrate]	400 nM
CC(C(=O)N1CCN(C(C#N)c2cccnc2)CC1)(c1ccccc1)c1ccccc1 (stereo unspecified) [[4-(2,2-Diphenyl-propionyl)-piperazin-1-yl]-pyridin-3-yl-acetonitrile; dihydrochloride]	1.9 nM
N#CC(c1cccnc1)N1CCN(C(=O)C(Cc2ccccc2)Cc2ccccc2)CC1 (stereo unspecified) [[4-(2-Benzyl-3-phenyl-propionyl)-piperazin-1-yl]-pyridin-3-yl-acetonitrile; dihydrochloride; hydrate]	11 nM
N#CC(c1cccnc1)N1CCN(C(=O)CNCc2ccccc2)CC1 (stereo unspecified) [[4-(2-Benzylamino-acetyl)-piperazin-1-yl]-pyridin-3-yl-acetonitrile; dihydrochloride; hydrate]	240 nM
CC(C(=O)N1CCN(C(C#N)c2cccnc2)CC1)c1ccccc1 (stereo unspecified) [[4-(2-Phenyl-propionyl)-piperazin-1-yl]-pyridin-3-yl-acetonitrile; dihydrochloride]	21 nM
N#CC(c1ccncc1)N1CCN(C(=O)CC(c2ccccc2)c2ccccc2)CC1 (stereo unspecified) [[4-(3,3-Diphenyl-propionyl)-piperazin-1-yl]-pyridin-4-yl-acetonitrile; dihydrochloride]	51 nM
N#CC(c1cccnc1)N1CCN(C(=O)CCc2ccccc2)CC1 (stereo unspecified) [[4-(3-Phenyl-propionyl)-piperazin-1-yl]-pyridin-3-yl-acetonitrile; dihydrochloride; hydrate]	520 nM
